Where a name gives a salt, the structure may show the parent alone.
Legend:
[1] = cited from earlier work
[2] = cited from earlier work; remark: listed apart in the source
[3] = Dissolution testing in USP-2 apparatus; assay type: physicochemical; conditions: aqueous media, at or below 85 μm
Protocol: Usually the test result is established as an average for a pre-determined number of dosages (e.g., capsules, tablets, suspensions, or other dosage form), usually six. The dissolution media is typically maintained at 37° C. during the test. […] The amount of dissolved ziprasidone can be determined conventionally by HPLC, as hereinafter described.
A dosage form can be tested to assess its dissolution profile by dissolution testing it in a USP-2 apparatus. As previously described, the apparatus is implemented to contain 900 ml of 0.05 M NaH2 PO4 buffer, pH 7.5, containing 2% (w/w) sodium dodecyl sulfate. 1% pancreatin may be added if the dosage form being tested is a capsule, as previously noted. The pH can be adjusted as approprate using, for example, 5N NaOH or concentrated phosphoric acid. The USP-2 apparatus is equipped with paddles stirring at 75 rpm. […]
The amount of dissolved ziprasidone can be determined conventionally by HPLC. […] Quantification can be effected facilely by comparison of HPLC peak height (or area) with the peak height (or area) taken from a standard plot of concentration vs. peak height (or area) for standards of known concentration. As is conventional, the ziprasidone standard concentrations are selected to fall within a linear range of concentration vs absorbance for the UV detector employed.

Solubility = assay type: physicochemical

SMILES	aqueous solubility [1]	permeability [2]	dependence of dissolution rate on particle size [3]	solubility compared with the acid addition salt (Solubility; near-neutral pH)	solubility (Solubility; slurry in THF/water process)
O=C1Cc2cc(CCN3CCN(c4nsc5ccccc45)CC3)c(Cl)cc2N1 [ziprasidone hydrochloride]	relatively poor aqueous solubility	high permeability	–	–	–
O=C1Cc2cc(CCN3CCN(c4nsc5ccccc45)CC3)c(Cl)cc2N1 [ziprasidone]	–	–	does not vary substantially with particle size	much less soluble	low solubility

From patent US6150366A, “Ziprasidone formulations” (Pfizer Inc., priority 1999, dated 2000)
